The subject of assay [1] is primary human T-cells.
Assay [2] deals with primary human T-cells. Kind of assay: Proliferation assay after 5 days (CellTiter-Glo, CD3 stimulation; PBS counter screen). The assay is classed as cell-based. The conditions noted are these: CD3 stimulation; for Emax: read-out: Emax proliferation (% activation); for EC50: primary human T-cells, CellTiter-Glo after 5 days, EC50 of fitted sigmoidal curve, read-out: Tcell Proliferation CD3 EC50. In short, it runs like this:
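Primary human T-cells, with or without CD3 stimulation, exposed to compounds for 5 days; cell number read as ATP by CellTiter-Glo 2.0 luminescence after 45 min equilibration and 15 min reagent incubation at room temperature. Compounds activating unstimulated cells or reducing viability were flagged.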
A general note: ATP-based viability assays read luminescence as a measure of living cells.

[3] abbreviates: Homo sapiens, T-cell, 120 h, 5 days, normalized to reference compound A1 as stimulator control = 100%, DMSO neutral control.

This is an account of results in patent US20240368150A1 (Hoffmann-La Roche Inc., priority 2021, published 2024).

Like-named read-outs stand apart in the source and are kept apart here. Where only a bound is given, the exact number is not on record here.

For the molecule `CC(C)(C)c1nnc(-c2ccc3c(c2)N(Cc2ccc(OCC4CC4)cc2)C(=O)[C@@H](N)CS3(=O)=O)o1` [Example 431, (3R)-3-amino-7-(5-tert-butyl-1,3,4-oxadiazol-2-yl)-5-[[4-(cyclopropylmethoxy)phenyl]methyl]-1,1-dioxo-2,3-dihydro-1λ^6,5-benzothiazepin-4-one], the EC50 was 4080 nM in the assay on primary human T-cells [1] and 1930 nM in the assay with primary human T-cells [2] (Homo sapiens, T-cell, 120 h). Besides, in the assay on primary human T-cells [2] (setting [3]), the Emax was 110%.

In the case of `COC(=O)N1CCC(c2nc(-c3cc4c(cc3F)S(=O)(=O)C[C@H](N)C(=O)N4Cc3ccc(OC(C)C)cc3)no2)C1` (stereo partly drawn) [Example 349], the EC50 was found to be 1330 nM in the assay with primary human T-cells [1] and 399 nM in the assay with primary human T-cells [2] (Homo sapiens, T-cell, 120 h). Moreover, the Emax in the assay on primary human T-cells [2] (setting [3]) is 124%.

For the molecule `CC(CO)(CCl)c1nnc(-c2cc3c(cc2F)S(=O)(=O)C[C@H](N)C(=O)N3Cc2ccc(Cl)cc2)o1` (stereo partly drawn) [Example 115, (3R)-3-amino-7-[5-[1-(chloromethyl)-2-hydroxy-1-methyl-ethyl]-1,3,4-oxadiazol-2-yl]-5-[(4-chlorophenyl)methyl]-8-fluoro-1,1-dioxo-2,3-dihydro-1λ^6,5-benzothiazepin-4-one], the EC50 stood at 2210 nM in the assay on primary human T-cells [1] and 495 nM in the assay on primary human T-cells [2] (Homo sapiens, T-cell, 120 h). In the assay on primary human T-cells [2] (setting [3]), the Emax came out at 127%.

As for `CN1CC(C)(c2nnc(-c3cc4c(cc3F)S(=O)(=O)C[C@H](N)C(=O)N4Cc3ccc(Cl)cc3)o2)C1` [Example 155, (3R)-3-amino-5-[(4-chlorophenyl)methyl]-7-[5-(1,3-dimethylazetidin-3-yl)-1,3,4-oxadiazol-2-yl]-8-fluoro-1,1-dioxo-2,3-dihydro-1λ^6,5-benzothiazepin-4-one], the EC50 is 778 nM with primary human T-cells [1] and 4180 nM in the assay with primary human T-cells [2] (Homo sapiens, T-cell, 120 h). Also, the Emax with primary human T-cells [2] (setting [3]) stood at 72%.

Consider `COCCN1CC(c2nnc(-c3cc4c(cc3F)S(=O)(=O)C[C@H](N)C(=O)N4Cc3ccc(Cl)cc3)o2)CC(F)(F)C1` (stereo partly drawn) [Example 151, (3R)-3-amino-5-[(4-chlorophenyl)methyl]-7-[5-[5,5-difluoro-1-(2-methoxyethyl)-3-piperidyl]-1,3,4-oxadiazol-2-yl]-8-fluoro-1,1-dioxo-2,3-dihydro-1λ^6,5-benzothiazepin-4-one], for which the EC50 in the assay on primary human T-cells [1] came to 93.4 nM; with primary human T-cells [2] (Homo sapiens, T-cell, 120 h), 45.9 nM. For the same molecule, in the assay with primary human T-cells [2] (setting [3]), the Emax worked out at 112%.

`CC(C)N(C)C(=O)c1nnc(-c2cc3c(cc2F)S(=O)(=O)C[C@H](N)C(=O)N3Cc2ccc(Cl)cc2)o1` [Example 114, N-isopropyl-N-methyl-5-[(3R)-3-amino-5-[(4-chlorophenyl)methyl]-8-fluoro-1,1,4-trioxo-2,3-dihydro-1λ^6,5-benzothiazepin-7-yl]-1,3,4-oxadiazole-2-carboxamide]: the EC50 in the assay on primary human T-cells [1] is 756 nM; in the assay with primary human T-cells [2] (Homo sapiens, T-cell, 120 h), > 10000 nM. Besides, in the assay with primary human T-cells [2] (setting [3]), the Emax turned out to be 65%.

For the molecule `N[C@H]1CS(=O)(=O)c2cc(F)c(-c3nnc(C(=O)N4[C@@H]5CCC[C@H]4CC5)o3)cc2N(Cc2ccc(Cl)cc2)C1=O` [Example 96, (3R)-3-amino-5-[(4-chlorophenyl)methyl]-8-fluoro-1,1-dioxo-7-[5-[(1R,5S)-8-azabicyclo[3.2.1]octane-8-carbonyl]-1,3,4-oxadiazol-2-yl]-2,3-dihydro-1λ^6,5-benzothiazepin-4-one], the EC50 in the assay with primary human T-cells [1] was 604 nM; in the assay with primary human T-cells [2] (Homo sapiens, T-cell, 120 h), > 2730 nM. In addition, the Emax with primary human T-cells [2] (setting [3]) was found to be 46%.

With `CC(C)(C)n1nnc(-c2ccc3c(c2)N(Cc2ccc(OC(F)(F)F)cc2)C(=O)[C@@H](N)CS3(=O)=O)n1` [Example 31, (3R)-3-amino-7-(2-tert-butyltetrazol-5-yl)-1,1-dioxo-5-[[4-(trifluoromethoxy)phenyl]methyl]-2,3-dihydro-1λ^6,5-benzothiazepin-4-one], the EC50 amounted to 344 nM in the assay with primary human T-cells [1] and 276 nM with primary human T-cells [2] (Homo sapiens, T-cell, 120 h). In the assay with primary human T-cells [2] (setting [3]), the Emax was found to be 97%.

In the case of `CC(C)(C)c1nnc(-c2cc3c(cc2F)S(=O)(=O)C[C@H](N)C(=O)N3Cc2ccc(OCC(F)(F)F)cc2)o1` [Example 243, (3R)-3-amino-7-(5-tert-butyl-1,3,4-oxadiazol-2-yl)-8-fluoro-1,1-dioxo-5-[[4-(2,2,2-trifluoroethoxy)phenyl]methyl]-2,3-dihydro-1λ^6,5-benzothiazepin-4-one], the EC50 in the assay on primary human T-cells [1] is 918 nM; with primary human T-cells [2] (Homo sapiens, T-cell, 120 h) it was 246 nM. The Emax in the assay on primary human T-cells [2] (setting [3]) was determined as 129%.

Turning to `N[C@H]1CS(=O)(=O)c2cc(F)c(-c3noc(N4CCC(F)(F)CC4)n3)cc2N(Cc2ccc(Cl)cc2)C1=O` [Example 197, (3R)-3-amino-5-[(4-chlorophenyl)methyl]-7-[5-(4,4-difluoro-1-piperidyl)-1,2,4-oxadiazol-3-yl]-8-fluoro-1,1-dioxo-2,3-dihydro-1λ^6,5-benzothiazepin-4-one], the EC50 in the assay on primary human T-cells [1] was 226 nM; in the assay on primary human T-cells [2] (Homo sapiens, T-cell, 120 h), 118 nM. Besides, the Emax in the assay with primary human T-cells [2] (setting [3]) is 112%.

As to `CC(C)(C)n1nnc(-c2cc3c(cc2F)S(=O)(=O)C[C@H](N)C(=O)N3Cc2ccc(F)cc2)n1` [Example 32], the EC50 in the assay with primary human T-cells [1] was determined as 7630 nM; with primary human T-cells [2] (Homo sapiens, T-cell, 120 h), 808 nM. Also, the Emax in the assay on primary human T-cells [2] (setting [3]) was found to be 101%.

For `CC(C)(C)c1nnc(-c2cc3c(cc2F)S(=O)(=O)C[C@H](N)C(=O)N3Cc2ccc(S(C)(=O)=O)cc2)o1` [Example 229, (3R)-3-amino-7-(5-tert-butyl-1,3,4-oxadiazol-2-yl)-8-fluoro-5-[(4-methylsulfonylphenyl)methyl]-1,1-dioxo-2,3-dihydro-1λ^6,5-benzothiazepin-4-one], the EC50 in the assay on primary human T-cells [1] is 2440 nM; with primary human T-cells [2] (Homo sapiens, T-cell, 120 h), 1680 nM. Moreover, in the assay with primary human T-cells [2] (setting [3]), the Emax turned out to be 116%.

In the case of `CC(Nc1nnc(-c2cc3c(cc2F)S(=O)(=O)C[C@H](N)C(=O)N3Cc2ccc(Cl)cc2)o1)C(F)(F)F` (stereo partly drawn) [Example 498, (3R)-3-amino-5-[(4-chlorophenyl)methyl]-8-fluoro-1,1-dioxo-7-[5-[(2,2,2-trifluoro-1-methyl-ethyl)amino]-1,3,4-oxadiazol-2-yl]-2,3-dihydro-1λ^6,5-benzothiazepin-4-one], the EC50 was 724 nM in the assay on primary human T-cells [1] and 1080 nM in the assay with primary human T-cells [2] (T-cell, 120 h). In addition, the Emax in the assay on primary human T-cells [2] (setting [3]) turned out to be 103%.

Take `CN1CC(n2cc(-c3cc4c(cc3F)S(=O)(=O)C[C@H](N)C(=O)N4Cc3ccc(Cl)cc3)cn2)CC(F)(F)C1` (stereo partly drawn) [Example 281, (3R)-3-amino-5-[(4-chlorophenyl)methyl]-7-[1-(5,5-difluoro-1-methyl-3-piperidyl)pyrazol-4-yl]-8-fluoro-1,1-dioxo-2,3-dihydro-1λ^6,5-benzothiazepin-4-one]: the EC50 with primary human T-cells [1] was > 10000 nM; with primary human T-cells [2] (Homo sapiens, T-cell, 120 h), 1040 nM. For the same molecule, in the assay with primary human T-cells [2] (setting [3]), the Emax was found to be 89%.

In the case of `CS(=O)(=O)CCc1nnc(-c2cc3c(cc2F)S(=O)(=O)C[C@H](N)C(=O)N3Cc2ccc(Cl)cc2)o1` [Example 95, (3R)-3-amino-5-[(4-chlorophenyl)methyl]-8-fluoro-7-[5-(2-methylsulfonylethyl)-1,3,4-oxadiazol-2-yl]-1,1-dioxo-2,3-dihydro-1λ^6,5-benzothiazepin-4-one], the EC50 amounted to 5360 nM with primary human T-cells [1] and 6160 nM with primary human T-cells [2] (Homo sapiens, T-cell, 120 h). Besides, the Emax in the assay with primary human T-cells [2] (setting [3]) is 67%.

Regarding `N[C@H]1CS(=O)(=O)c2cc(F)c(-c3noc(C(=O)NCC(F)(F)F)n3)cc2N(Cc2ccc(Cl)cc2)C1=O` [Example 291, 3-[(3R)-3-amino-5-[(4-chlorophenyl)methyl]-8-fluoro-1,1,4-trioxo-2,3-dihydro-1λ^6,5-benzothiazepin-7-yl]-N-(2,2,2-trifluoroethyl)-1,2,4-oxadiazole-5-carboxamide], the EC50 came to 1700 nM with primary human T-cells [1] and 446 nM in the assay with primary human T-cells [2] (Homo sapiens, T-cell, 120 h). Moreover, the Emax with primary human T-cells [2] (setting [3]) was found to be 104%.

With `COC(=O)N1CC2CC(c3nc(-c4cc5c(cc4F)S(=N)(=O)C[C@H](N)C(=O)N5Cc4ccc(OC(F)(F)C(F)F)cc4)no3)(C2)C1` (stereo partly drawn) [Example 520, methyl 1-[3-[(3R)-3-amino-8-fluoro-1-imino-1,4-dioxo-5-[[4-(1,1,2,2-tetrafluoroethoxy)phenyl]methyl]-2,3-dihydro-1λ^6,5-benzothiazepin-7-yl]-1,2,4-oxadiazol-5-yl]-3-azabicyclo[3.1.1]heptane-3-carboxylate], the EC50 in the assay on primary human T-cells [1] was 1150 nM; with primary human T-cells [2] (Homo sapiens, T-cell, 120 h), 267 nM. For the same molecule, the Emax in the assay with primary human T-cells [2] (setting [3]) worked out at 42%.

Take `CC(C)c1nnc(-c2cc3c(cc2F)S(=O)(=O)C[C@H](N)C(=O)N3Cc2ccc(Cl)cc2)o1` [Example 84, (3R)-3-Amino-5-[(4-chlorophenyl)methyl]-8-fluoro-7-(5-isopropyl-1,3,4-oxadiazol-2-yl)-1,1-dioxo-2,3-dihydro-1λ^6,5-benzothiazepin-4-one]: the EC50 in the assay with primary human T-cells [1] came to 450 nM; in the assay with primary human T-cells [2] (Homo sapiens, T-cell, 120 h), 226 nM. Further, in the assay on primary human T-cells [2] (setting [3]), the Emax came to 191%.

Consider `CC(C)(C)n1nnc(-c2cc3c(cc2F)[S+]([O-])C[C@H](N)C(=O)N3Cc2ccc(Cl)cc2)n1` (stereo partly drawn) [Example 35, (3R)-3-amino-7-(2-tert-butyltetrazol-5-yl)-5-[(4-chlorophenyl)methyl]-8-fluoro-1-oxo-2,3-dihydro-1λ^4,5-benzothiazepin-4-one], for which the EC50 with primary human T-cells [1] was determined as 7130 nM; in the assay with primary human T-cells [2], 1240 nM. In addition, the “Emax proliferation (% activation)” value with primary human T-cells [2] (5 days, normalized to reference compound A1 as stimulator control = 100%, DMSO neutral control) came out at 125 % activation.

Regarding `CCc1coc(CN2C(=O)[C@@H](N)CS(=O)(=O)c3cc(F)c(-c4nnc(C(C)(C)C)o4)cc32)n1` [Example 241, (3R)-3-amino-7-(5-tert-butyl-1,3,4-oxadiazol-2-yl)-5-[(4-ethyloxazol-2-yl)methyl]-8-fluoro-1,1-dioxo-2,3-dihydro-1λ^6,5-benzothiazepin-4-one], the EC50 with primary human T-cells [1] was > 10000 nM; in the assay on primary human T-cells [2] (Homo sapiens, T-cell, 120 h), 2940 nM. In addition, the Emax in the assay on primary human T-cells [2] (setting [3]) is 73%.
